Source: patent US20260152527A1, “NOVEL MELANOCORTIN ANALOGS” (priority 2022, published 2026)
Positions of bridges follow the written chain, without caps; N, C: chain ends. Non-standard residues stand in square brackets, D forms with d. Residues, ends and D or L forms follow the SMILES beside them. Triazole bridges read from a SMILES are 1,4-linked. *: point of attachment. Benzoyl(3,5-(OH)2) = O=C(c1cc(O)cc(O)c1)*; Lys(N3) = [N-]=[N+]=NCCCC[C@H](N)C(=O)O; dPhe(4-F) = N[C@H](Cc1ccc(F)cc1)C(=O)O; Nle = CCCC[C@H](N)C(=O)O; Pra = C#CC[C@H](N)C(=O)O

Test system: corneal edema following Descemetorhexis without Endothethelial Keratoplasty (DWEK) surgery
Format: in vivo
Conditions: rabbit
Description: To evaluate the efficacy of a peptide formulation in reducing corneal edema following Descemetorhexis without Endothethelial Keratoplasty (DWEK) surgery a study in rabbits was undertaken. […] A Table summarizing the parameters regarding the study is provided in FIGS. 5A-5B and a schematic exemplifying the timeline of the study is provided in FIG. 6.
Treatment was administered once (QD) or twice daily (BID) with approximately 6-8 hours between each BID dose for 28 days.
The rabbits were subjected to a surgical procedure prior to administering topical treatment. The animals received buprenorphine (0.01-0.05 mg/kg SC) and were sedated immediately prior to the procedure with ketamine/xylazine cocktail (20-50/4-10 mg/kg IM). Aseptic precautions were taken for the surgical procedure. […] Sterile eyewash was then used to irrigate the ocular surface of the left eye. […] The animal's corneal epithelium was marked with a circular ring (5 mm) to create a template for resection of the host tissue. […] Descemet's membrane was scored peripherally using a reverse Terry-Sinskey hook, and then Descemet's membrane was peeled from the overlying stroma. Descemet's membrane was removed using forceps. Viscoelastic was removed by Irrigation Aspiration (IA) using balanced salt saline (BSS). […]
In addition, tonometry was performed by a veterinary ophthalmologist or a trained technician. Intraocular pressure (IOP) was measured in both eyes of all animals at days 2, 4, 8, 15, 22, and 29. […] Six consecutive measurements were obtained and the average IOP shown on the display was recorded. Three independent measurements were obtained and recorded for each eye.
Pachymetry was also performed by a veterinary ophthalmologist or trained technician on days 2, 4, 8, 15, 22, and 29. Corneal thickness was measured in both eyes using an ultrasonic pachymeter. […]
Optical coherence tomography (OS only) was also measured in the animals. […]

For `CCCC[C@H](NC(=O)c1cc(O)cc(O)c1)C(=O)N[C@H]1CCCCn2cc(nn2)C[C@@H](C(N)=O)NC(=O)[C@H](Cc2c[nH]c3ccccc23)NC(=O)[C@H](CCCNC(=N)N)NC(=O)[C@@H](Cc2ccc(F)cc2)NC(=O)[C@H](Cc2c[nH]cn2)NC1=O` [KR-072, HyBA-Nle-[Lys(N3)-His-Dphe(4-F)-Arg-Trp-Pra]-NH2] ({Benzoyl(3,5-(OH)2)}-[Nle][Lys(N3)]H[dPhe(4-F)]RW[Pra]-NH2; triazole 2-7), the “corneal edema by stromal thickness measurements (OCT)” value (DWEK, topical 0.05, 0.1, 0.5 mg/mL QD vs vehicle) was “decrease corneal edema”, the “wound healing / rate of wound closure (corneal flat mount analysis)” value (topical 0.1 mg/mL) was “enhanced wound healing” and the “efficacy on corneal stromal thickness by OCT” value (two lowest treatment options 0.05 mg/mL or 0.1 mg/mL) was “Statistically significant efficacy”.
